Assay results taken from patent US11464768B2, “Pimavanserin alone or in combination for use in the treatment of Alzheimer's disease psychosis” (ACADIA Pharmaceuticals Inc., priority 2016, dated 2022).

How the values were obtained:
ADP patients [1] = test: Same twelve-week study: safety assessment (adverse events); assay type: in vivo, human; details: for tolerability and safety profile: 34 mg once daily for twelve weeks, 181 patients in safety assessment
Method: Each patient participated in a 3-week screening period, a 12-week double-blind treatment period, and a 4-week follow-up period. The maximum duration of the study for each patient was approximately 19 weeks. Pimavanserin was administered in tablet form, once daily by mouth in 34 mg doses (2 tablets of 17 mg pimavanserin), equivalent to 40 mg pimavanserin tartrate. (2 tablets of 20 mg pimavanserin tartrate) Placebo was administered with visibly matching tablets, using the same route and regimen. The safety of subjects was assessed by monitoring adverse events, physical examinations, vital signs, clinical laboratory tests (hematology, clinical chemistry, and urinalysis), and electrocardiograms. Furthermore cognitive status was assessed via MMSE.
The results of the study were obtained from a majority of the 181 patients, some of the patients were excluded from the endpoint results but all 181 patients were included in the safety assessment.

ADP patients [2] = test: Same twelve-week study: cognitive status by Mini-Mental State Examination (MMSE); assay type: in vivo, human; details: 34 mg once daily; 12 week study
Method: In some embodiments the effect of the treatment is an antipsychotic effect, for example determined by an improved patient score in the Neuropsychiatric Inventory-Nursing Home Version (NPI-NH) psychosis scale, without impairing cognition, as determined by Mini-Mental State Examiner (MMSE) score. In some embodiment the antipsychotic effect without impairing cognition is determined over the 12 weeks of treatment. The MMSE is a brief 30-point questionnaire that is used to quantitatively assess cognition (Folstein et al., Journal of Psychiatric Research. 12 (3): 189-98, 1975). The MMSE test includes simple questions and problems in a number of areas: the time and place of the test, repeating lists of words, arithmetic, language use and comprehension, and copying a drawing. […]
Each patient participated in a 3-week screening period, a 12-week double-blind treatment period, and a 4-week follow-up period. […] The safety of subjects was assessed by monitoring adverse events, physical examinations, vital signs, clinical laboratory tests (hematology, clinical chemistry, and urinalysis), and electrocardiograms. Furthermore cognitive status was assessed via MMSE.

CC(C)COc1ccc(CNC(=O)N(Cc2ccc(F)cc2)C2CCN(C)CC2)cc1 [Pimavanserin, N-(1-methylpiperidin-4-yl)-N-(4-fluorophenylmethyl)-N′-(4-(2-methylpropyloxy)phenylmethyl)carbamide]
tolerability and safety profile (ADP patients [1]): safe and well tolerated | tolerability and safety profile (ADP patients [1]; listed as pimavanserin): well tolerated | effect on cognitive function or motor functions (ADP patients [1]; pimavanserin arm (same in placebo arm)): no negative effect on cognitive function or motor functions | adverse event: falls (ADP patients [1]; pimavanserin arm, placebo arm 23.1%): 23.3% | adverse event: urinary tract infection (ADP patients [1]; pimavanserin arm, placebo arm 27.5%): 22.2% | cognition as measured by the Mini-Mental State Examination (MMSE) score (ADP patients [2]): did not impair cognition
